What was measured:
[1] = system: RNA silencing pathway (SULPHUR transcript) in SUC-SUL Arabidopsis reporter plants; assay: SUC-SUL Arabidopsis reporter plants, percentage of chlorosis (seedlings); format: in vivo, A. thaliana; details: 300 ppm spray, seedlings five days post-germination, assessed 14 days after treatment
From the text: The plants' RNA silencing pathway can be easily monitored with certain artificially-created reporter plants called the “SUC-SUL Arabidopsis reporter plants” (Dunoyer et al., Nat. Genet. 37, 1356-1360, 2005). The SUC-SUL Arabidopsis reporter plants are transgenic plants expressing an inverted-repeat (IR) double-stranded RNA designed to target the SULPHUR (SUL) transcript in the vasculature under the control of the SUC2 promoter (Truernit et al., Planta 196(3), 564-570, 1995). Once expressed, the dsRNA is processed into small interfering RNAs directing non-cell autonomous post-transcriptional gene silencing of the SULPHUR transcript, in turn causing vein-centered chlorosis. Since the observed chlorosis results from the silencing of the SULPHUR transcript, an expansion of the chlorosis, observable directly on the plants, is correlated with an intensification of the RNA silencing pathway at the molecular level. […] The effects of the treatments on the SUC-SUL reporter plants were assessed 14 days after treatment under trans-illumination and digitally recorded with a stereo-microscope by measuring the surface and intensity of the chlorotic zone (percentage of chlorosis). […]

[2] = system: RNAi pathway (SUL transcript, SUL protein, SUL siRNAs) in SUC-SUL Arabidopsis plants; assay: Molecular confirmation in four-week-old SUC-SUL Arabidopsis plants; format: in vivo; details: 200 ppm spray, seven days after treatment
From the text: The enhancing effect of DFPM on the RNAi machinery has been validated at the phenotypic and molecular levels. Four-week-old SUC-SUL Arabidopsis plants at rosette stage were sprayed with DFPM at 200 ppm. […] The plant aerial tissues were collected and analyzed molecularly using state-of-the-art methodologies. […] Furthermore, these effects were associated with an over-accumulation of both SUL 21-nt and 24-nt long siRNAs derived from the transgenic SUL.

[3] = system: Turnip mosaic virus (TuMV-GFP); assay: Antiviral efficacy against TuMV-GFP on Arabidopsis; format: in vivo; details: 100 or 200 ppm sprayed 3 days before infection
Protocol: The Turnip mosaic virus (TuMV) belongs to the Potyviridae, the largest family of known plant viruses. This virus infects a wide range of plants, in particular Brassicaceae. TuMV genome consists of a positive-sense single-stranded RNA molecule (+ssRNA). The antiviral efficacy of DFMP was tested with a fluorescently-tagged potyvirus (TuMV-GFP) in order to specifically pinpoint when and where the effect of the molecules is induced during virus primary infection, as well as its local or systemic spread.
Arabidopsis plants were sprayed with 100 or 200 ppm of DFMP 3 days before infecting the plants with the TuMV-GFP virus. Virus titers were measured by qPCR and/or virus protein accumulation on Western blot analyses and by counting the number of primary infection foci under UV light in the case of the TuMV-GFP.

[4] = system: Turnip crinkle virus (TCV); assay: Antiviral efficacy against TCV; format: in vivo; details: 100 ppm
From the text: (§1) Similar results were obtained with DFPM with the unrelated viruses Turnip crinkle virus (TCV,) and Cauliflower mosaic virus (CaMV). The TCV belongs to the Tombusviridae family and infects various types of plant species including the common plant models A. thaliana and N. benthamiana. Its genome is another example of +strand RNA virus. The CaMV belongs to the Caulimoviridae family. It infects mostly Brassicaceae such as turnip and cabbage, but is also able to infect A. thaliana. CaMV consists of a double-stranded DNA molecule.

[5] = system: Cauliflower mosaic virus (CaMV); assay: Antiviral efficacy against CaMV; format: in vivo; details: 100 ppm
From the text: as §1

[6] = system: Bean pod mottle virus (BPMV-GFP); assay: Antiviral efficacy against BPMV-GFP on soybean plants; format: in vivo; details: seven days-post-infection
Protocol: The Bean pod mottle virus (BPMV) is a plant pathogenic virus of the family Comoviridae. This virus infects legumes and more particularly soybean. BPMV genome consists of a bipartite positive-sense single-stranded RNA molecule (+ssRNA). The antiviral efficacy of silencing enhancers was tested with a fluorescently-tagged comoviruss (BPMV-GFP) in order to specifically pinpoint when and where the effect of the molecules is induced during virus primary infection, local or systemic spread.
Soybean plants were sprayed with 100 or 200 ppm of DFPM and emulsifiable concentrate (EC) Premix one day before to infect the plants with the BPMV-GFP virus. Twelve replicates were used for each condition.

[7] = system: ABA-dependent gene expression and ABA-induced stomatal closure; details: in vivo; cited from earlier work
[8] = system: PHYTOALEXIN DEFICIENT4 (PAD4) and ENHANCED DISEASE SUSCEPTIBILITY1 (EDS1); details: in vivo; cited from earlier work
[9] = system: tobacco mosaic virus (TMV); details: cited from earlier work
[10] = system: Pseudomonas syringae pv tabaci; details: cited from earlier work
[11] = system: SA-inducible pathogenesis-related (PR)-1 proteins; details: infiltrated leaves; cited from earlier work
[12] = 100 ppm sprayed one day before infection
[13] = 200 ppm sprayed one day before infection

With `S=C(c1ccc(-c2ccc(Cl)c(Cl)c2)o1)N1CCCCC1` [DFPM, [5-(3,4-Dichlorophenyl)Furan-2-yl]-Piperidin-1-ylMethanethione] the percentage of chlorosis [1] was “significant increase”, the “SUL 21-nt and 24-nt long siRNAs” value ([2]; aerial tissues) was “over-accumulation” and the “SUL protein levels (Western blot)” value ([2]; aerial tissues) was “reductions in SUL protein levels”. The “SUL transcript levels (real-time qRT-PCR, FIG. 1)” value ([2]; aerial tissues) was “reductions in SUL transcript levels”, the “RNAi-dependent vein-centered chlorotic phenotype” value ([2]; vs DMSO only) was “clear expansion” and the “virus accumulation on inoculated leaves (infection foci, FIG. 2)” value ([3]; five days post-infection) was “strong reduction”. For the same molecule, the “accumulation of virus titers” value ([3]; five days-post-infection) was “clear reduction”, the “virus accumulation on systemic tissues (TuMV-derived HcPro mRNA levels, FIG. 3)” value ([3]; six days post-infection) was “strong reduction” and the “virus accumulation on inoculated leaves and systemic tissues (TCV-derived P38 mRNA)” value [4] was “strong reduction”. The “virus accumulation on inoculated leaves and systemic tissues (CaMV-derived P6 mRNA)” value [5] was “strong reduction”, the “BPMV fluorescence on soybean” value ([6]; 100 or 200 ppm) was “clear reduction” and the “number of plants showing BPMV symptoms” value ([6]; 100 or 200 ppm) was “clear reduction”. The “Average of Percentage of BPMV fluorescence” value [6, 12] was 31%, the “Percentage of plants showing BPMV symptoms” value [6, 12] was 55% and the “Average of Percentage of BPMV fluorescence” value [6, 13] was 8%. The “Percentage of plants showing BPMV symptoms” value [6, 13] was 10%, the “ABA-dependent gene expression in plant” value [7] was “rapidly downregulates” and the ABA-induced stomatal closure [7] was “inhibits”. The “expression of plant defense-related genes including PAD4 and EDS1” value [8] was “stimulates”.

For `COC(=O)N(OC)c1ccccc1COc1ccn(-c2ccc(Cl)cc2)n1` [Pyraclostrobin], the “TMV resistance in NahG transgenic tobacco plants” value ([9]; NahG transgenic tobacco unable to accumulate salicylic acid) is listed as “able to enhance TMV resistance”, the “resistance of tobacco against infection by TMV” value ([9]; tobacco) is listed as “enhance the resistance” and the “resistance of tobacco against infection by Pseudomonas syringae pv tabaci” value [10] is listed as “enhance the resistance”. The “accumulation of SA-inducible PR-1 proteins” value [11] was “did not cause the accumulation”.

From US20190053490A1, “USE OF ACTIVE SUBSTANCES FOR CONTROLLING VIRUS INFECTION IN PLANTS” (Bayer CropScience Aktiengesellschaft, priority 2016, published 2019)
